Results: PubChem BioAssay AID1963424 (Molecular Pharmacology Branch, DTP, NCI, 2024)

Test system: 327498-153-R-J2-PDC complex spheroid growth, % test/control
Assay: Anticancer human tumor 327498-153-R-J2-PDC patient-derived uterine carcinosarcoma cell line growth inhibition [Asc]
Details: for IC50: curve of first compound; for viability, T/C: stronger effect = lower value
Experimental: Multicellular complex tumor spheroid response to apoptosis pathway targeting inhibitors Alrizomadlin, Pelcitoclax, and Dasminapant in combination with a variety of drugs and investigational agents in selected tumor cell lines
The MDM2 inhibitor alrizomadlin, the Bcl-2/Bcl-xL inhibitor pelcitoclax, and the IAPs inhibitor dasminapant were evaluated both individually and in combination with standard of care and investigational anticancer small molecules within a complex spheroid model of solid tumors. . Complex spheroids include a stromal component modeled by human endothelial cells (HUVEC) and fibroblasts modeled by human mesenchymal stem cells (MSCs). The concentration ranges selected for each drug and investigational agent were based upon clinically achievable concentrations if the clinical Cmax of the agent was known.
Compounds. The drugs and investigational agents: alrizomadlin (APG-115; NSC831270), pelcitoclax (APG-1252; NSC835773), dasminapant (APG-1387;NSC834197), TAK-243 (NSC785004), copanlisib (NSC809693), olaparib (NSC753686), talazoparib (NSC767125), cobimetinib (NSC 768068), eltanexor (KPT-8602, NSC 794443), abemaciclib (NSC 768073), sotorasib (NSC818433), adagrasib (NSC 831453), MRTX-1133 (NSC 836407), Iadademestat (ORY1001, NSC 806812), and RMC-4630 (NSC839698), were obtained from the NCI Developmental Therapeutics Program Chemical Repository. The FDA-approved anticancer drug set is available from the Developmental Therapeutics Program at https://dtp.cancer.gov/organization/dscb/obtaining/available plates.htm. […] The stock solutions were prepared in dimethyl sulfoxide (DMSO, Sigma-Aldrich, St. Louis, MO, cat. D2650) at 800-fold the tested concentration and stored at -70 degrees C prior to their use. All drugs and investigational agents were tested over a range starting from a high concentration at or near the clinical Cmax and decreasing in half-log increments. If the clinical Cmax for an agent had not been determined, the highest concentration tested was 10 microM.
The patient-derived cancer (PDC) cell lines include five colon adenocarcinomas: 186277-243-T-J2-PDC, 616215-338-R-J1-PDC, 439559-082-T-J2-PDC, 463943-066-T-J2-PDC, and 519858-162-T-J1-PDC; three pancreatic carcinomas: 323965-272-R-J2-PDC, 521955-158-R6-J3-PDC, and 521955-158-R2-J5-PDC; two uterine sarcomas: 327498-152-R-J2-PDC and 993429-296-R-J1-PDC; two rhabdomyosarcomas: 755483-174-R-J1-PDC and 772245-204-R-J1-PDC; two soft tissue sarcomas: 126254-015-R-J1-PDC and 494315-158-R-J1-PDC; two malignant fibrous histiocytomas: 317291-083-R-J1-PDC and 596521-263-R-J1-PDC; two breast carcinomas: 171881-019-R-J1-PDC and 885512-296-R-J2-PDC; and one ovarian carcinoma: 6556581-035-R-J-PDC were obtained from the NCI PDMR, (https://pdmr.cancer.gov). The established cell lines HSSY-2 synovial sarcoma (RRID:CVCL 8719), SYO-1 synovial sarcoma (RRID:CVCL_7146), MPNST malignant peripheral neural sheath tumor were obtained from the Sloan Kettering Institute. The following established cell lines were purchased from the American Type Culture Collection (ATCC, Manassas, VA), Sor the received from the NCI repository:, PANC-1 pancreatic carcinoma (CRL-1469, RRID:CVCL_0480), OVCAR-5 ovarian carcinoma (RRID:CVCL_1628), OVCAR-8 ovarian carcinoma (RRID:CVCL_1629), , MCF-7 breast carcinoma (CRL-12584, RRID:CVCL_0031), MDA-MB-231 breast carcinoma (CRL-12532, RRID:CVCL_0062), NCI-H1876 small cell lung carcinoma (CRL-5902, RRID:CVCL_1503), NCI-H510A small cell lung carcinoma (HTB-184, RRID:CVCL_1565), NCI-H1417 (CRL-5869, RRID:CVCL_1469), and NCI-H196 small cell lung carcinoma (CRL-5823, RRID:CVCL_1509). Dr. Peter Houghton (Greehey Children's Cancer Research Institute, University of Texas Health Science Center, San Antonio, TX) provided Rh-18 rhabdomyosarcoma (RRID:CVCL_1659). Pooled donor human umbilical vein endothelial cells (HUVEC, Lonza, cat. CC-2519) and human mesenchymal stem cells (hMSC, Lonza, cat. PT-2501) were purchased from Lonza (Walkersville, MD).
Cell Culture. […]

[1] = second compound 0.03 µM, first compound 0.00316 µM
[2] = second compound 0.03 µM, first compound 0.01 µM
[3] = second compound 0.03 µM, first compound 0.0316 µM
[4] = second compound 0.03 µM, first compound 0.1 µM
[5] = second compound 0.0949 µM, first compound 0.00316 µM
[6] = second compound 0.0949 µM, first compound 0.01 µM
[7] = second compound 0.0949 µM, first compound 0.0316 µM
[8] = second compound 0.0949 µM, first compound 0.1 µM
[9] = second compound 0.3 µM, first compound 0.00316 µM
[10] = second compound 0.3 µM, first compound 0.01 µM
[11] = second compound 0.3 µM, first compound 0.0316 µM
[12] = second compound 0.3 µM, first compound 0.1 µM
[13] = second compound 0.949 µM, first compound 0.00316 µM
[14] = second compound 0.949 µM, first compound 0.01 µM
[15] = second compound 0.949 µM, first compound 0.0316 µM
[16] = second compound 0.949 µM, first compound 0.1 µM
[17] = second compound 3 µM, first compound 0.00316 µM
[18] = second compound 3 µM, first compound 0.01 µM
[19] = second compound 3 µM, first compound 0.0316 µM
[20] = second compound 3 µM, first compound 0.1 µM
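Also: spheroids exposed to compound for 7 days after 3 days of growth.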
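For viability, T/C in this document: 100% = DMSO vehicle control wells.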

With `CCN1CCN(Cc2ccc(Nc3ncc(F)c(-c4cc(F)c5nc(C)n(C(C)C)c5c4)n3)nc2)CC1` + CCN1C(C(=O)NC23CCC(C(=O)O)(CC2)CC3)C(c2cccc(Cl)c2F)C2(C(=O)Nc3cc(Cl)ccc32)C12CCCCC2 the IC50 (second compound 0.03 µM) was over 1000 nM, the IC50 (second compound 0.0949 µM) was 28.8 nM and the IC50 (second compound 0.3 µM) was under 3.16 nM. The IC50 (second compound 0.949 µM) was under 3.16 nM, the IC50 (second compound 3 µM) was under 3.16 nM and the viability, T/C [1] was 86.8%. It also gave a viability, T/C [2] of 84.2%, a viability, T/C [3] of 77.1% and a viability, T/C [4] of 52.4%. The viability, T/C (second compound 0.03 µM, first compound 0.316 µM) was 48.4%, the viability, T/C (second compound 0.03 µM, first compound 1 µM) was 53.3% and the viability, T/C [5] was 68%. It also gave a viability, T/C [6] of 68.4%, a viability, T/C [7] of 48.3% and a viability, T/C [8] of 31.7%. The viability, T/C (second compound 0.0949 µM, first compound 0.316 µM) was 39.8%, the viability, T/C (second compound 0.0949 µM, first compound 1 µM) was 39% and the viability, T/C [9] was 34.3%. It also gave a viability, T/C [10] of 26.6%, a viability, T/C [11] of 18.2% and a viability, T/C [12] of 15.4%. It also gave a viability, T/C (second compound 0.3 µM, first compound 0.316 µM) of 17.9%, a viability, T/C (second compound 0.3 µM, first compound 1 µM) of 21.3% and a viability, T/C [13] of 9.27%. The viability, T/C [14] was 8.09%, the viability, T/C [15] was 6.59% and the viability, T/C [16] was 7.13%. For the same compound, the viability, T/C (second compound 0.949 µM, first compound 0.316 µM) was 8.2%, the viability, T/C (second compound 0.949 µM, first compound 1 µM) was 11.3% and the viability, T/C [17] was 3.59%. It also gave a viability, T/C [18] of 3.67%, a viability, T/C [19] of 2.51% and a viability, T/C [20] of 3.55%. The viability, T/C (second compound 3 µM, first compound 0.316 µM) was 4.83% and the viability, T/C (second compound 3 µM, first compound 1 µM) was 8.39%.
In the case of `NC(=O)C(=Cn1cnc(-c2cc(C(F)(F)F)cc(C(F)(F)F)c2)n1)c1cncnc1` + CCN1C(C(=O)NC23CCC(C(=O)O)(CC2)CC3)C(c2cccc(Cl)c2F)C2(C(=O)Nc3cc(Cl)ccc32)C12CCCCC2, the IC50 (second compound 0.03 µM) is reported as 24.8 nM, the IC50 (second compound 0.0949 µM) is reported as 8.01 nM and the IC50 (second compound 0.3 µM) is reported as under 0.949 nM. For the same compound, the IC50 (second compound 0.949 µM) was under 0.949 nM, the IC50 (second compound 3 µM) was under 0.949 nM and the viability, T/C (second compound 0.03 µM, first compound 0.000949 µM) was 102%. The viability, T/C (second compound 0.03 µM, first compound 0.003 µM) was 83.2%, the viability, T/C (second compound 0.03 µM, first compound 0.00949 µM) was 75.5% and the viability, T/C (second compound 0.03 µM, first compound 0.03 µM) was 49.4%. For the same compound, the viability, T/C (second compound 0.03 µM, first compound 0.0949 µM) was 8.49%, the viability, T/C (second compound 0.03 µM, first compound 0.3 µM) was 1.47% and the viability, T/C (second compound 0.0949 µM, first compound 0.000949 µM) was 73.5%. It also gave a viability, T/C (second compound 0.0949 µM, first compound 0.003 µM) of 70.8%, a viability, T/C (second compound 0.0949 µM, first compound 0.00949 µM) of 45.9% and a viability, T/C (second compound 0.0949 µM, first compound 0.03 µM) of 16.1%. For the same compound, the viability, T/C (second compound 0.0949 µM, first compound 0.0949 µM) was 5.19%, the viability, T/C (second compound 0.0949 µM, first compound 0.3 µM) was 0.5% and the viability, T/C (second compound 0.3 µM, first compound 0.000949 µM) was 40.5%. It also gave a viability, T/C (second compound 0.3 µM, first compound 0.003 µM) of 33.2%, a viability, T/C (second compound 0.3 µM, first compound 0.00949 µM) of 22.8% and a viability, T/C (second compound 0.3 µM, first compound 0.03 µM) of 5.64%. For the same compound, the viability, T/C (second compound 0.3 µM, first compound 0.0949 µM) was 1.54%, the viability, T/C (second compound 0.3 µM, first compound 0.3 µM) was 0.36% and the viability, T/C (second compound 0.949 µM, first compound 0.000949 µM) was 9.07%. The viability, T/C (second compound 0.949 µM, first compound 0.003 µM) was 5.81%, the viability, T/C (second compound 0.949 µM, first compound 0.00949 µM) was 5.57% and the viability, T/C (second compound 0.949 µM, first compound 0.03 µM) was 1.96%. It also gave a viability, T/C (second compound 0.949 µM, first compound 0.0949 µM) of 0.72%, a viability, T/C (second compound 0.949 µM, first compound 0.3 µM) of 0.32% and a viability, T/C (second compound 3 µM, first compound 0.000949 µM) of 4.84%. The viability, T/C (second compound 3 µM, first compound 0.003 µM) was 2.37%, the viability, T/C (second compound 3 µM, first compound 0.00949 µM) was 1.32% and the viability, T/C (second compound 3 µM, first compound 0.03 µM) was 1%. It also gave a viability, T/C (second compound 3 µM, first compound 0.0949 µM) of 0.92% and a viability, T/C (second compound 3 µM, first compound 0.3 µM) of 0.41%.
With `NC1CCC(NC2CC2c2ccccc2)CC1` (stereo not given) + CCN1C(C(=O)NC23CCC(C(=O)O)(CC2)CC3)C(c2cccc(Cl)c2F)C2(C(=O)Nc3cc(Cl)ccc32)C12CCCCC2 the IC50 (second compound 0.03 µM) was over 100 nM, the IC50 (second compound 0.0949 µM) was over 100 nM and the IC50 (second compound 0.3 µM) was under 0.316 nM. The IC50 (second compound 0.949 µM) was under 0.316 nM, the IC50 (second compound 3 µM) was under 0.316 nM and the viability, T/C (second compound 0.03 µM, first compound 0.000316 µM) was 103%. For the same compound, the viability, T/C (second compound 0.03 µM, first compound 0.001 µM) was 94.5%, the viability, T/C [1] was 93.8% and the viability, T/C [2] was 92.4%. For the same compound, the viability, T/C [3] was 103%, the viability, T/C [4] was 97.3% and the viability, T/C (second compound 0.0949 µM, first compound 0.000316 µM) was 84.3%. The viability, T/C (second compound 0.0949 µM, first compound 0.001 µM) was 84.4%, the viability, T/C [5] was 83.4% and the viability, T/C [6] was 84.9%. It also gave a viability, T/C [7] of 83.9%, a viability, T/C [8] of 87.4% and a viability, T/C (second compound 0.3 µM, first compound 0.000316 µM) of 53%. It also gave a viability, T/C (second compound 0.3 µM, first compound 0.001 µM) of 47.9%, a viability, T/C [9] of 43.8% and a viability, T/C [10] of 39.1%. The viability, T/C [11] was 49.8%, the viability, T/C [12] was 43.6% and the viability, T/C (second compound 0.949 µM, first compound 0.000316 µM) was 10.8%. For the same compound, the viability, T/C (second compound 0.949 µM, first compound 0.001 µM) was 12.7%, the viability, T/C [13] was 15.8% and the viability, T/C [14] was 11.6%. It also gave a viability, T/C [15] of 14.7%, a viability, T/C [16] of 16.5% and a viability, T/C (second compound 3 µM, first compound 0.000316 µM) of 4.55%. It also gave a viability, T/C (second compound 3 µM, first compound 0.001 µM) of 5.4%, a viability, T/C [17] of 2.47% and a viability, T/C [18] of 7.42%. The viability, T/C [19] was 5.29% and the viability, T/C [20] was 4.14%.
